{"source": "patent EP3866826B1", "about": "“ANTIMICROBIAL PEPTIDES AND METHODS OF USING THE SAME” (priority 2018, dated 2020)", "key": {"Candida 17-88 biofilm": {"system": "Candida 17-88 biofilm", "experiment": "Inhibition of preformed biofilm, metabolic evaluation using XTT (FIG. 5)", "format": "cell-based, Candida albicans", "details": "added to preformed Candida 17-88 biofilm for 24 hours", "description": "Fluconazole or RP557 were added to preformed Candida 17-88 biofilm for 24 hours and biofilm inhibition evaluated via metabolic evaluation using XTT, 2,3-bis (2-methoxy-4-nitro-5-sulfophenyl) [phenyl-amino)carbonyl]-2H. Data represent the mean±SD of triplicate measurements and statistical significance, compared to vehicle control, determined by one-way ANOVA followed by Dunnett's test (*p < 0.05, **p < 0.01, and ***p < 0.001)."}, "[1]": {"system": "gram-negative bacteria; A. baumannii and P. aeruginosa; gram-positive bacteria, S. aureus and MRSA and fungal strains; C. albicans, C. parapsilosis, C. krusei …", "experiment": "Antimicrobial activity against multiple clinical isolates of bacteria and fungal strains", "format": "cell-based", "description": "Thirty-four AMPs were synthesized and evaluated in three iterative rounds. Each AMP was evaluated for antimicrobial potency against 11 strains of bacteria, 7 strains of fungi and their cytotoxicity determined using L929 fibroblasts and human keratinocytes. The AMPs were evaluated for biofilm eradication and ability to induce antimicrobial resistance."}, "[2]": {"experiment": "Physiochemical properties of RP557 (hydrophilicity, solubility, pH stability)", "format": "physicochemical", "details": "extremes of pH (<4)", "description": "(§1) Exemplary AMP RP557 was prepared in one gram lots at 98% purity or better. […] Furthermore, advances in solid and solution phase peptide chemistry has enabled Good Manufacturing Practice (GMP) material to be produced rapidly, economically in high yield and purity."}, "[3]": {"system": "S. aureus, P. aeruginosa and Fuscobacterium ssp.", "experiment": "Pharmacodynamic response in biofilm associated wounds, CFU counts of punch biopsies (FIG. 7)", "format": "in vivo", "details": "2% RP557 applied 24 hours post inoculation; biopsies at 30 min, 180 min and 24 hours post treatment", "description": "(§2) From the in vitro screening assays three AMPs were selected for further evaluation in a qualified porcine burn wound model infected with P. aeruginosa and S. aureus. Full thickness wounds were created with heated brass rod and 2cm trephine: approximately 10 minutes after homeostasis, wounds were infected with a 2:2:1 mixture of S. aureus, P. aeruginosa and Fuscobacterium ssp. Treatment of infected wounds began 24 hours post infection to allow for biofilm formation.\nFIG. 7A-7B Pharmacodynamic Response to RP557. Twenty four hours post bacterial inoculation biofilm associated wounds were treated with 2% RP557. Punch biopsies were taken at 30 min, 180 min and 24 hours post treatment, homogenized, plated and CFUs counted. Statistical significance was calculated using the Holm-Sidak method. *p<0.05, ***p<0.001, ****p<0.0001, dAMP vs Control."}, "[4]": {"experiment": "Stability in serum, monitored via LC-MS/MS", "format": "in vitro ADME", "details": "human serum for 72 hrs at 37°C monitored via LC-MS/MS", "description": "as §1"}, "P. aeruginosa 27853": {"system": "P. aeruginosa 27853", "experiment": "Resistance development by serial passage at sub-inhibitory concentrations, 30 passages (FIG. 4)", "format": "cell-based", "description": "(§3) FIG. 4A to 4B. […] Sub-inhibitory concentrations of RP557, gentamicin and clindamycin were incubated with P. aeruginosa 27853 and S. aureus 29213 for 24 hours. Bacteria showing growth in the highest concentration were re-passaged in fresh dilutions containing sub-minimum inhibitory concentration (MIC) levels of each component for 30 consecutive passages; means are shown."}, "S. aureus 29213": {"system": "S. aureus 29213", "experiment": "Resistance development by serial passage at sub-inhibitory concentrations, 30 passages (FIG. 4)", "format": "cell-based", "description": "as §3"}, "[5]": {"system": "P. aeruginosa (porcine isolate)", "experiment": "Polymicrobial infected full-thickness thermal porcine burn model, bacterial counts (FIG. 6A)", "format": "in vivo", "details": "pig, single dose, 2% RP557 (p<0.0001), sampled after 24 hours", "description": "as §2\n(§4) Full thickness wounds were created with a heated brass rod and a trephine on the back of anesthetized pigs followed by infection with 2:2:1 mixture of S. aureus ATCC 6538 (FIG. 6B) and P. aeruginosa (porcine isolate) (FIG. 6A) and fusobacterium ssp. After 3 hours, 0, 0.1, 0.2, 1 or 2% RP557 were applied. After 24 hours, wounds were sampled by punch biopsy and bacterial counts, expressed as log (Colony Forming Units, CFUs/g) evaluated. Data is expressed as mean±SE of 8 replicates. Statistical significance, compared to vehicle, determined by one-way ANOVA followed by Dunnett's test (**p < 0.01, ****p < 0.0001)."}, "C. albicans (ATCC 44858)": {"system": "C. albicans (ATCC 44858)", "experiment": "Vaginal infection rodent model of vulvovaginal candidiasis, fungal counts (FIG. 8)", "format": "in vivo", "details": "rats, 20 mg/mL IVG at 0.1 mL/rat twice daily for 3 days from 48 hr after infection, CFUs on Day 5 (p < 0.0001)", "description": "FIG. 8A to 8B. RP557 topical treatment reduces rodent vaginal candidiasis. Effects of RP557, miconazole and oral fluconazole in the C. albicans (ATCC 44858) vaginal infection rodent model. On Day 0, rats were inoculated intravaginally (IVG) with C. albicans at 1.46 x 10^7 CFU/rat. RP557 and miconazole at 20 mg/mL were administered IVG at 0.1 mL/rat twice daily at 8 hr intervals starting from 48 hr after infection for 3 days. CFUs were evaluated on Day 5 with limit of detection (LOD) 0.7 CFU/rat. Significant difference, compared to vehicle, determined by one-way ANOVA followed by Dunnett's test (*p < 0.05, ****p < 0.0001). A separate group receiving oral fluconazole; *p < 0.05 versus 0.1 and 10 mg/kg fluconazole."}, "L929 fibroblast cells": {"system": "L929 fibroblast cells", "experiment": "Cytotoxicity to mammalian cells, cell viability (FIG. 3C)", "format": "cell-based", "description": "The rapid destruction of pathogenic cells by potent broad-spectrum topical anti-infectives infer a theoretical reduced likelihood of developing bacterial resistance. […] Cell viability was performed using bioluminescent strains of P. aeruginosa 19660 (FIG. 3A), S. aureus 49525 (FIG. 3B) & L929 fibroblast cells (FIG. 3C) and imaged with the IVIS Lumina system. Data represents the mean of 3 measurements."}, "S. aureus ATCC 6538": {"system": "S. aureus ATCC 6538", "experiment": "Polymicrobial infected full-thickness thermal porcine burn model, bacterial counts (FIG. 6B)", "format": "in vivo", "details": "pig, single topical application, sampled after 24 hours", "description": "as §2, §4"}}, "note": "Where no end group is shown, it is not given here.", "data": [{"sequence": "RFCWKVCYKGICFKKCK (disulfide (positions not given here)) [RP557, 17 amino acids, hairpin structure formed by two disulfide bonds]", "values": [{"measurement": "biofilm inhibition", "setting": "Candida 17-88 biofilm", "result": "potent inhibitor"}, {"measurement": "antimicrobial activity", "setting": "[1]", "result": "broad-spectrum antimicrobial activity"}, {"measurement": "stability at extremes of pH", "setting": "[2]", "result": "stable"}, {"measurement": "pharmacodynamic response, CFUs in wounds", "setting": "[3]", "result": "Kills Infection Throughout a 24 Hour Period"}, {"measurement": "stability in serum", "setting": "[4]", "result": "stable in serum"}, {"measurement": "susceptibility of the resistant strain at the end of 30 serial passages (cross resistance)", "setting": "P. aeruginosa 27853; gentamicin-resistant P. aeruginosa", "result": "readily susceptible"}, {"measurement": "development of resistance", "setting": "P. aeruginosa 27853; sub-inhibitory concentrations, 30 consecutive passages, P. aeruginosa 27853", "result": "did not develop resistance"}, {"measurement": "susceptibility of the resistant strain at the end of 30 serial passages (cross resistance)", "setting": "S. aureus 29213; clindamycin-resistant S. aureus", "result": "readily susceptible"}, {"measurement": "development of resistance", "setting": "S. aureus 29213; sub-inhibitory concentrations, 30 consecutive passages, S. aureus 29213", "result": "did not develop resistance"}, {"measurement": "number of viable P. aeruginosa bacteria", "setting": "[5]", "result": "1.96±1.64", "unit": "log CFU/g tissue"}, {"measurement": "fungal counts relative to the vehicle control group", "setting": "C. albicans (ATCC 44858)", "result": "significant reductions"}, {"measurement": "cytotoxicity to mammalian cells", "setting": "L929 fibroblast cells", "result": "not cytotoxic"}, {"measurement": "S. aureus CFU counts", "setting": "S. aureus ATCC 6538; 0.2% RP557 (p < 0.01)", "result": "2.11±1.75", "unit": "log CFU/g tissue"}, {"measurement": "S. aureus CFU counts", "setting": "S. aureus ATCC 6538; 1% RP557 (p < 0.0001)", "result": "1.46±2.05", "unit": "log CFU/g tissue"}]}]}
